We go through 22 molecules from patent US20240199623A1 (ILDONG PHARMACEUTICAL CO., LTD., priority 2020, published 2024).

In brackets after ≈: the same amount, converted by molar mass.

Series [1] is described as follows: Phosphate-buffered saline (PBS) solubility of compounds. In kind it is physicochemical. Conditions: aqueous buffer, thermodynamic from solid, PBS pH 7.5, 0.5 mg/mL, vortexed 90 min, filtered, LC-MS/MS, read-out: Solubility Range. The protocol:
PBS solutions (pH 7.5) were prepared according to the following compositions and stored at 4° C. Test compounds were dissolved in PBS (pH 7.5) at 0.5 mg/mL and vortexed for 90 min. The PBS solution was sequentially filtered through a 0.45, 1.2, […] syringe filter. Concentration of test compounds were determined using LC-MS/MS with appropriate dilution of the samples.

For series [2], the target named is T1, human wild type-CFTR (Homo sapiens, UniProt P13569). Description: Short-circuit current measurement. It counts as cell-based. Also on record: expressed in transfected cells. The following applies: FRT cells expressing human wild type-CFTR; Forskolin 20 μM signal used as 100% activity; read-out: Short-circuit current measurement (EC50) Concentration range. From the text:
Forskolin (Tocris cat. #1099), CFTRinh-172 (Tocris cat. #3430), amphotericin B (Tocris cat. #6930), dimethyl sulfoxide (Sigma cat. #D4540), EVC4000 Multi-Channel V/I Clamp (World Precision Instruments, Sarasota, FL), PowerLab 4/35 (AD Instruments, Castle Hill, Australia), Labchart Pro 7, GraphPad Prism 5 (GraphPad Software, Inc.). Fisher rat thyroid (FRT) cells expressing human wild type-CFTR were provided by Dr. Alan Verkman (University of California, San Francisco) and grown in DMEM/F12 medium (1:1) supplemented with 10% FBS, 2 mM glutamine, 100 units/ml penicillin and 100 μg/ml streptomycin. Snapwell inserts containing CF TR-expressing FRT cells were mounted in Ussing chambers (Physiologic Instruments, San Diego, CA). […] Forskolin, test compounds, and CFTRinh-172 were added to the apical and basolateral bath solution. Apical membrane current and short-circuit current were measured with an EVC4000 Multi-Channel V/I Clamp (World Precision Instruments, Sarasota, FL) and recorded using PowerLab 4/35 (AD Instruments, Castle Hill, Australia). Data were collected and analyzed with ADInstruments acquisition software Labchart Pro 7 software. The sampling rate was 4 Hz.

Series [3] deals with T1, human wild type-CFTR. Put plainly: Cell-based YFP assay. Further details: expressed in transfected cells; host or cells: CHO-K1 (Chinese hamster ovary). Conditions: CHO-K1 cells expressing human wild type-CFTR and YFP-H148Q/I152L; forskolin 20 μM = 100% activity; read-out: Cell-based YFP Assay (EC50) Concentration Range. The gist of the method: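 CHO-K1 cells co-expressing human wild-type CFTR and YFP-H148Q/I152L halide sensor, grown 48 h at 37 °C, then in PBS. YFP quenching by I⁻ influx read at 37 °C after adding 140 mM I⁻ solution, sampled every 0.4 s for 14 s. Triplicates averaged; EC50 fitted.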

T1 sequence (P13569 whole entry): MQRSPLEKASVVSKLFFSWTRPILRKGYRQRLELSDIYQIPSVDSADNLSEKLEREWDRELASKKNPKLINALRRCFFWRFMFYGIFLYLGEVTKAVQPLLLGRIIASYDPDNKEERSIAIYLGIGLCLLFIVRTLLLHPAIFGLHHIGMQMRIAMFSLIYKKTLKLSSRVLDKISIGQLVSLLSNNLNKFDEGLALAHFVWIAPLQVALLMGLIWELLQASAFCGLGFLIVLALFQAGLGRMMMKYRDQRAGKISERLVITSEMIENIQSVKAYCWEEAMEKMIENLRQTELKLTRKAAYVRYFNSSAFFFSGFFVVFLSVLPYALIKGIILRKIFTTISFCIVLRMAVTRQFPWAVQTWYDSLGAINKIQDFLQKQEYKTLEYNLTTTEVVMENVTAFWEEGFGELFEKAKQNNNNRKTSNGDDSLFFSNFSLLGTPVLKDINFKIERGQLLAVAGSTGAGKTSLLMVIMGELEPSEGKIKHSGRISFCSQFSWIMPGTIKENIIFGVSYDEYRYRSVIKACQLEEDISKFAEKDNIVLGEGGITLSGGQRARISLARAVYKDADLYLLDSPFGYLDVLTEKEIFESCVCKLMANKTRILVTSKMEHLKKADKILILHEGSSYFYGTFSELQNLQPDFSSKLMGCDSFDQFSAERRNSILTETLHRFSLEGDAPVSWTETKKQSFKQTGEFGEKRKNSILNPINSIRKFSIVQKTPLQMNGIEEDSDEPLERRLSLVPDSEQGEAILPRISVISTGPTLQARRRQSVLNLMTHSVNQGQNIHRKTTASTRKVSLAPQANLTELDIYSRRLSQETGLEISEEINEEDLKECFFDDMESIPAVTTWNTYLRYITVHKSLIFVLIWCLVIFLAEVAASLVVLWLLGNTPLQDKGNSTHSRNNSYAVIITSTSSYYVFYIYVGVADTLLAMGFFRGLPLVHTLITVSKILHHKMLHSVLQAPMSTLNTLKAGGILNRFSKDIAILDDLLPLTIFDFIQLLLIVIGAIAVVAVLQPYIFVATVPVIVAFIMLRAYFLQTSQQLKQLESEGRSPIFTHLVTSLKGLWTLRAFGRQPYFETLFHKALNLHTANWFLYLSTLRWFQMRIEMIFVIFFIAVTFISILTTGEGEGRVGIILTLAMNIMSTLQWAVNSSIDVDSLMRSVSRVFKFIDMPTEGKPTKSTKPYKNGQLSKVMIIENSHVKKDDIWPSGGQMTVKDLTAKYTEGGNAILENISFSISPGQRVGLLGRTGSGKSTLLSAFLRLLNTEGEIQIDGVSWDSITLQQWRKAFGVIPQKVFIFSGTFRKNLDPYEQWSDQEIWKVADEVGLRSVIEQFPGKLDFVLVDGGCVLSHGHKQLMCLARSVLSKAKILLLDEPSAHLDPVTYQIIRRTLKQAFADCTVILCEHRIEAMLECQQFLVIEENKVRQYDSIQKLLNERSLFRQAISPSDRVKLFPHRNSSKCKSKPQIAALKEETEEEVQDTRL

As a reminder, the solubility is how much of the substance goes into solution per volume. On to `COc1ccc(-c2ccnc3cc(C(=O)Nc4ccc(C(=O)O)cc4)nn23)cc1OC` [Compound 14, 4-(7-(3,4-dimethoxyphenyl)pyrazolo[1,5-a]pyrimidine-2-carboxamido)benzoic acid], for which, in series [1], the solubility at 90 min lay within 0.1 to 10 µg/mL (≈ 0.239 to 23.9 µM). Also, the EC50 on human wild type-CFTR [2] was ≥ 2000 nM; at human wild type-CFTR [3], 200 to 2000 nM.

On to `COc1ccc(-c2ccnc3cc(C(=O)Nc4ccccn4)nn23)cc1OC` [Compound 17, 7-(3,4-dimethoxyphenyl)-N-(pyridin-2-yl)pyrazolo[1,5-a] pyrimidine-2-carboxamide], for which the solubility at 90 min in series [1] was < 0.1 µg/mL. In addition, the EC50 at human wild type-CFTR [2] and at human wild type-CFTR [3] was < 200 nM throughout.

For `CCOC(=O)CNC(=O)c1ccc(NC(=O)c2cc3nccc(-c4ccc(OC)c(OC)c4)n3n2)cc1` [Compound 28, ethyl (4-(7-(3,4-dimethoxyphenyl)pyrazolo [1,5-a]pyrimidine-2-carboxamido)benzoyl)glycinate], in series [1], the solubility at 90 min is < 0.1 µg/mL. For the same molecule, the EC50 on human wild type-CFTR [2] and on human wild type-CFTR [3] was < 200 nM throughout.

On to `COC(=O)c1ccc(NC(=O)c2cc3nccc(-c4ccc(OC)c(OC)c4)n3n2)nc1` [Compound 31, methyl 6-(7-(3,4-dimethoxyphenyl)pyrazolo [1,5-a]pyrimidine-2-carboxamido)nicotinate], for which the solubility at 90 min in series [1] was < 0.1 µg/mL. Further, the EC50 at human wild type-CFTR [2] and on human wild type-CFTR [3] was < 200 nM each time.

In the case of `COc1ccc(-c2ccnc3cc(C(=O)Nc4ccc(C(=O)O)cn4)nn23)cc1OC` [Compound 78, 6-(7-(3,4-dimethoxyphenyl)pyrazolo[1,5-a]pyrimidine-2-carboxamido) nicotinic acid], the EC50 on human wild type-CFTR [2] and on human wild type-CFTR [3] was 200 to 2000 nM each time.

With `CCOC(=O)N1CCN(C(=O)c2cc3nccc(-c4ccc(OC)c(OC)c4)n3n2)CC1` [Compound 86, ethyl 4-(7-(3,4-dimethoxyphenyl)pyrazolo[1,5-a]pyrimidine-2-carbonyl) piperazine-1-carboxylate], the EC50 at human wild type-CFTR [2] is ≥ 2000 nM; at human wild type-CFTR [3], 200 to 2000 nM.

As for `COc1ccc(-c2ccnc3cc(C(=O)Nc4ccc(C(=O)O)cc4Cl)nn23)cc1OC` [Compound 106, 3-chloro-4-(7-(3,4-dimethoxyphenyl)pyrazolo [1,5-a]pyrimidine-2-carboxamido)benzoic acid], the solubility at 90 min in series [1] is < 0.1 µg/mL. Besides, the EC50 is ≥ 2000 nM on human wild type-CFTR [2] and < 200 nM on human wild type-CFTR [3].

For `CCOC(=O)N1CCN(C(=O)c2cc3nccc(-c4ccc(OC)c(OC)c4)n3n2)CC1` [Compound 111, ethyl 4-(7-(3,4-dimethoxyphenyl)pyrazolo[1,5-a]pyrimidine-2-carbonyl) piperazine-1-carboxylate], the EC50 on human wild type-CFTR [2] was ≥ 2000 nM; at human wild type-CFTR [3], 200 to 2000 nM.

As for `COc1ccc(-c2ccnc3cc(C(=O)Nc4ccc(C(=O)N5CCOCC5)cc4C)nn23)cc1OC` [Compound 127, 7-(3,4-dimethoxyphenyl)-N-(2-methyl-4-(morpholine-4-carbonyl)phenyl)pyrazolo[1,5-a] pyrimidine-2-carboxamide], the solubility at 90 min in series [1] was < 0.1 µg/mL. In addition, the EC50 at human wild type-CFTR [2] and on human wild type-CFTR [3] was 200 to 2000 nM throughout.

In the case of `COC(=O)c1ccc2c(c1)CCN2C(=O)c1cc2nccc(-c3ccc(OC)c(OC)c3)n2n1` [Compound 130, methyl 1-(7-(3,4-dimethoxyphenyl)pyrazolo [1,5-a]pyrimidine-2-carbonyl)indoline-5-carboxylate], in series [1], the solubility at 90 min is < 0.1 µg/mL. For the same molecule, the EC50 at human wild type-CFTR [2] was 200 to 2000 nM; at human wild type-CFTR [3], < 200 nM.

For the molecule `COC(=O)c1ccc2c(c1)CN(C(=O)c1cc3nccc(-c4ccc(OC)c(OC)c4)n3n1)CC2` [Compound 131, methyl 2-(7-(3,4-dimethoxyphenyl)pyrazolo [1,5-a]pyrimidine-2-carbonyl)-1,2,3,4-tetrahydroisoquinoline-7-carboxylate], the solubility at 90 min in series [1] is < 0.1 µg/mL. The EC50 on human wild type-CFTR [2] and on human wild type-CFTR [3] was < 200 nM each time.

Regarding `COC(=O)c1ccc2c(c1)N(C(=O)c1cc3nccc(-c4ccc(OC)c(OC)c4)n3n1)CC2` [Compound 132, methyl 1-(7-(3,4-dimethoxyphenyl)pyrazolo [1,5-a]pyrimidine-2-carbonyl)indoline-6-carboxylate], the solubility at 90 min in series [1] was < 0.1 µg/mL. Further, the EC50 was 200 to 2000 nM at human wild type-CFTR [2] and < 200 nM at human wild type-CFTR [3].

Regarding `COC(=O)c1ccc2c(c1)CCCN2C(=O)c1cc2nccc(-c3ccc(OC)c(OC)c3)n2n1` [Compound 133, methyl 1-(7-(3,4-dimethoxyphenyl)pyrazolo [1,5-a]pyrimidine-2-carbonyl)-1,2,3,4-tetrahydroquinoline-6-carboxylate], in series [1], the solubility at 90 min was < 0.1 µg/mL. In addition, the EC50 at human wild type-CFTR [2] and on human wild type-CFTR [3] was < 200 nM throughout.

Turning to `COc1ccc(-c2ccnc3cc(C(=O)Nc4ccc(C(=O)N5CCN(C)CC5)cc4Cl)nn23)cc1OC` [Compound 137, N-(2-chloro-4-(4-methylpiperazine-1-carbonyl)phenyl)-7-(3,4-dimethoxyphenyl)pyrazolo [1,5-a]pyrimidine-2-carboxamide], the EC50 on human wild type-CFTR [2] and at human wild type-CFTR [3] was 200 to 2000 nM in each case.

Take `COc1ccc(-c2ccnc3cc(C(=O)Nc4ccc(C(=O)OCCCN5CCOCC5)cn4)nn23)cc1OC` [Compound 142, 3-morpholinopropyl 6-(7-(3,4-dimethoxyphenyl)pyrazolo [1,5-a]pyrimidine-2-carboxamido)nicotinate]: the solubility at 90 min in series [1] was < 0.1 µg/mL. The EC50 at human wild type-CFTR [2] and at human wild type-CFTR [3] was < 200 nM throughout.

For the molecule `COc1ccc(-c2ccnc3cc(C(=O)Nc4ccc(C(=O)N[C@H](C(=O)N5CCN(C)CC5)C(C)C)cc4)nn23)cc1OC` [Compound 146, (S)-7-(3,4-dimethoxyphenyl)-N-(4-((3-methyl-1-(4-methylpiperazin-1-yl)-1-oxobutan-2-yl)carbamoyl)phenyl) pyrazolo[1,5-a]pyrimidine-2-carboxamide], in series [1], the solubility at 90 min is < 0.1 µg/mL. Also, the EC50 at human wild type-CFTR [2] and on human wild type-CFTR [3] was < 200 nM each time.

Consider `COc1ccc(-c2ccnc3cc(C(=O)Nc4ccc(OC(=O)[C@@H](NC(=O)OC(C)(C)C)C(C)C)cc4)nn23)cc1OC` [Compound 200, 4-(7-(3,4-dimethoxyphenyl)pyrazolo[1,5-a]pyrimidine-2-carboxamido)phenyl(tert-butoxycarbonyl)-L-valinate], for which the EC50 on human wild type-CFTR [2] and on human wild type-CFTR [3] was < 200 nM each time.

As to `COc1ccc(-c2ccnc3cc(C(=O)Nc4ccc(NC(=O)OC(C)(C)C)cc4)nn23)cc1OC` [Compound 256, tert-butyl (4-(7-(3,4-dimethoxyphenyl)pyrazolo [1,5-a]pyrimidine-2-carboxamido)phenyl) carbamate], the solubility at 90 min in series [1] was < 0.1 µg/mL. Besides, the EC50 at human wild type-CFTR [2] and at human wild type-CFTR [3] was < 200 nM in each case.

For `COc1ccc(-c2ccnc3cc(C(=O)Nc4ccc(NC(=O)CN)cc4)nn23)cc1OC` [Compound 283, N-(4-(2-aminoacetamido)phenyl)-7-(3,4-dimethoxyphenyl)pyrazolo [1,5-a]pyrimidine-2-carboxamide], in series [1], the solubility at 90 min is < 0.1 µg/mL. Also, the EC50 at human wild type-CFTR [3] fell in the range of 200 to 2000 nM.

With `COc1ccc(-c2ccnc3cc(C(=O)Nc4ccc(NC(=O)[C@H](C)N)cc4)nn23)cc1OC` [Compound 284, (S)-N-(4-(2-amino-propanamido)phenyl)-7-(3,4-dimethoxyphenyl)pyrazolo [1,5-a]pyrimidine-2-carboxamide], the solubility at 90 min in series [1] lay within 0.1 to 10 µg/mL (≈ 0.217 to 21.7 µM). The EC50 at human wild type-CFTR [3] is < 200 nM.

For the molecule `COc1ccc(-c2ccnc3cc(C(=O)Nc4ccc(N5CCC(=O)CC5)cc4)nn23)cc1OC` [Compound 285, 7-(3,4-dimethoxyphenyl)-N-(4-(4-oxopiperidin-1-yl)phenyl)pyrazolo [1,5-a]pyrimidine-2-carboxamide], the EC50 at human wild type-CFTR [2] and at human wild type-CFTR [3] was < 200 nM throughout.

Turning to `COc1ccc(-c2ccnc3cc(C(=O)Nc4ccc(N5CCCC5)cn4)nn23)cc1OC` [Compound 289, 7-(3,4-dimethoxyphenyl)-N-(5-(pyrrolidin-1-yl)pyridin-2-yl)pyrazolo[1,5-a]pyrimidine-2-carboxamide], the EC50 on human wild type-CFTR [2] and on human wild type-CFTR [3] was < 200 nM each time.
